Data as given in ChEMBL document CHEMBL3865846, “Synthesis and biological evaluation of ricinoleic acid-based lipoamino acid derivatives” (Bioorg Med Chem Lett, 2016).
In brackets after ≈: the same amount, converted by molar mass.

What was measured:
Assay type in all cases: functional
[1] = test system: Bacillus subtilis; test: Bactericidal activity against Bacillus subtilis MTCC121 measured after 24 hrs; settings: MTCC121, 24 h
[2] = test system: Candida albicans; test: Antimicrobial activity against Candida albicans MTCC3958 measured after 24 hrs by well-diffusion method; settings: MTCC3958, 24 h
[3] = test system: Candida albicans; test: Antimicrobial activity against Candida albicans MTCC854 measured after 24 hrs by well-diffusion method; settings: MTCC854, 24 h
[4] = test system: Candida albicans; test: Antimicrobial activity against Candida albicans MTCC4748 measured after 24 hrs by well-diffusion method; settings: MTCC4748, 24 h
[5] = test system: Candida albicans; test: Antimicrobial activity against Candida albicans MTCC227 measured after 24 hrs by well-diffusion method; settings: MTCC227, 24 h
[6] = test system: Candida albicans; test: Antimicrobial activity against Candida albicans MTCC7315 measured after 24 hrs by well-diffusion method; settings: MTCC7315, 24 h
[7] = test system: Staphylococcus aureus; test: Antimicrobial activity against Staphylococcus aureus MLS16 MTCC2940 measured after 24 hrs by well-diffusion method; settings: MLS16 MTCC2940, 24 h
[8] = test system: Staphylococcus aureus; test: Bactericidal activity against Staphylococcus aureus MLS16 MTCC2940 measured after 24 hrs; settings: MLS16 MTCC2940, 24 h
[9] = test system: Bacillus subtilis; test: Antimicrobial activity against Bacillus subtilis MTCC121 measured after 24 hrs by well-diffusion method; settings: MTCC121, 24 h
[10] = test system: Candida albicans; test: Antimicrobial activity against Candida albicans MTCC183 measured after 24 hrs by well-diffusion method; settings: MTCC183, 24 h
[11] = test system: Micrococcus luteus; test: Antimicrobial activity against Micrococcus luteus MTCC2470 measured after 24 hrs by well-diffusion method; settings: MTCC2470, 24 h
[12] = test system: Pseudomonas aeruginosa; test: Antimicrobial activity against Pseudomonas aeruginosa MTCCM2453 measured after 24 hrs by well-diffusion method; settings: MTCCM2453, 24 h
[13] = test system: Staphylococcus aureus; test: Bactericidal activity against Staphylococcus aureus MTCC96 measured after 24 hrs; settings: MTCC96, 24 h
[14] = test system: Candida albicans; test: Antimicrobial activity against Candida albicans MTCC1637 measured after 24 hrs by well-diffusion method; settings: MTCC1637, 24 h
[15] = test system: Candida albicans; test: Antimicrobial activity against Candida albicans MTCC3018 measured after 24 hrs by well-diffusion method; settings: MTCC3018, 24 h
[16] = test system: Candida albicans; test: Antimicrobial activity against Candida albicans MTCC3017 measured after 24 hrs by well-diffusion method; settings: MTCC3017, 24 h
[17] = test system: Micrococcus luteus; test: Bactericidal activity against Micrococcus luteus MTCC2470 measured after 24 hrs; settings: MTCC2470, 24 h
[18] = test system: Escherichia coli; test: Antimicrobial activity against Escherichia coli MTCC739 measured after 24 hrs by well-diffusion method; settings: MTCC739, 24 h
[19] = test system: Raoultella planticola; test: Antimicrobial activity against Klebsiella planticola MTCC530 measured after 24 hrs by well-diffusion method; settings: MTCC530, 24 h
[20] = test system: Staphylococcus aureus; test: Antimicrobial activity against Staphylococcus aureus MTCC96 measured after 24 hrs by well-diffusion method; settings: MTCC96, 24 h

SMILES	MIC [2]	MIC [3]	MIC [4]	MIC [5]	MIC [6]	MIC [7]	MIC [9]	MIC [10]	MIC [11]	MIC [12]	MIC [14]	MIC [15]	MIC [16]	MIC [18]	MIC [20]	MBC [1]	MBC [8]	MBC [13]	MBC [17]	MIC [19]
CCCCCCC(C/C=C\CCCCCCCC(=O)OC)NC(=O)[C@@H]1CCCN1 (some centres undefined)	31.2 mg/L (≈ 76.4 µM)	31.2 mg/L (≈ 76.4 µM)	31.2 mg/L (≈ 76.4 µM)	31.2 mg/L (≈ 76.4 µM)	31.2 mg/L (≈ 76.4 µM)	31.2 mg/L (≈ 76.4 µM)	15.6 mg/L (≈ 38.2 µM)	31.2 mg/L (≈ 76.4 µM)	15.6 mg/L (≈ 38.2 µM)	> 125 mg/L	31.2 mg/L (≈ 76.4 µM)	31.2 mg/L (≈ 76.4 µM)	31.2 mg/L (≈ 76.4 µM)	> 125 mg/L	15.6 mg/L (≈ 38.2 µM)	31.2 mg/L (≈ 76.4 µM)	31.2 mg/L (≈ 76.4 µM)	31.2 mg/L (≈ 76.4 µM)	31.2 mg/L (≈ 76.4 µM)	> 125 mg/L
O=C(O)c1cn(C2CC2)c2cc(N3CCNCC3)c(F)cc2c1=O [CIPROFLOXACIN]						0.9 mg/L (≈ 2.72 µM)	0.9 mg/L (≈ 2.72 µM)		0.9 mg/L (≈ 2.72 µM)	0.9 mg/L (≈ 2.72 µM)				0.9 mg/L (≈ 2.72 µM)	0.9 mg/L (≈ 2.72 µM)	0.7 to 1.9 mg/L (≈ 2.11 to 5.73 µM)	0.7 to 1.9 mg/L (≈ 2.11 to 5.73 µM)	0.7 to 1.9 mg/L (≈ 2.11 to 5.73 µM)	0.7 to 1.9 mg/L (≈ 2.11 to 5.73 µM)	0.9 mg/L (≈ 2.72 µM)

Further lines, with some results ahead:

MIC [2]	MIC [3]	MIC [4]	MIC [5]	MIC [6]	MIC [7]	MIC [9]	MIC [10]	MIC [11]	MIC [12]	MIC [14]	MIC [15]	MIC [16]	MIC [18]	MIC [20]	SMILES	MBC [1]	MBC [8]	MBC [13]	MBC [17]	MIC [19]
> 125 mg/L	> 125 mg/L	> 125 mg/L	> 125 mg/L	> 125 mg/L	> 125 mg/L	> 125 mg/L	> 125 mg/L	> 125 mg/L	> 125 mg/L	> 125 mg/L	> 125 mg/L	> 125 mg/L	> 125 mg/L	> 125 mg/L	CCCCCCC(C/C=C\CCCCCCCC(=O)OC)NC(=O)[C@@H](N)CC(C)C (some centres undefined)					> 125 mg/L
> 125 mg/L	> 125 mg/L	> 125 mg/L	> 125 mg/L	> 125 mg/L	> 125 mg/L	> 125 mg/L	> 125 mg/L	> 125 mg/L	> 125 mg/L	> 125 mg/L	> 125 mg/L	> 125 mg/L	> 125 mg/L	> 125 mg/L	CCCCCCC(C/C=C\CCCCCCCC(=O)OC)NC(=O)[C@@H](N)[C@@H](C)CC (some centres undefined)					> 125 mg/L
> 125 mg/L	> 125 mg/L	> 125 mg/L	> 125 mg/L	> 125 mg/L	> 125 mg/L	> 125 mg/L	> 125 mg/L	> 125 mg/L	> 125 mg/L	> 125 mg/L	> 125 mg/L	> 125 mg/L	> 125 mg/L	> 125 mg/L	CCCCCCC(C/C=C\CCCCCCCC(=O)OC)NC(=O)[C@@H](N)C(C)C (some centres undefined)					> 125 mg/L
